Source: patent US20090123389A1, “Methods for modulating Th17 cell development in the treatment and prevention of cellulite” (priority 2007, published 2009)

System: TGFβ signaling
Assay: TGFβ signaling in T and B cells (Smad phosphorylation, lymphocyte responses to TGFβ)
Assay type: cell-based, mouse
Conditions: HF 10 nM (2.5-40 nM for Smad); SB-431542 10 μM
Method: DMSO, 10 nM HF, 10 nM MAZ1310 or 10 μM SB-431542 was added as indicated at the time of activation and intracellular cytokine staining was performed on expanded T cells on day 5 as in FIG. 14B
FIG. 15B is an illustration depicting the analysis of CD8^+ T cells that were activated in the presence or absence of TGFβ and cultured with DMSO, 10 nM HF, 10 nM MAZ1310 or 10 μM SB-431542. Expanded cells were restimulated on day 5 and intracellular staining was performed as above.
FIG. 15C is an illustration depicting the analysis of CFSE-labeled B cells that were activated by LPS stimulation in the presence or absence of TGFβ plus DMSO, 10 nM HF, 10 nM MAZ1310 or 10 μM SB-431542. Intracellular IL-6 production in B cells re-stimulated with PMA plus ionomycin, or cell-surface IgA expression was determined 4 days after activation by FACS analyses.
T cells were then activated in the presence or absence of 3 ng/ml TGFβ. Whole cell extracts were prepared after 1 hour of stimulation and western blot analyses were performed using the indicated antibodies.
Western blotting: Whole cell lysates were generated from T cells activated for the indicated times. For STAT3 and Smad2/3 western blots cells were harvested, washed in PBS and lysed in 50 mM Tris, pH 7.4, 0.1% SDS, 1% Triton-×100, 140 mM NaCl, 1 mM EDTA, 1 mM EGTA supplemented with protease inhibitors tablets (Roche—Germany), 1 mM NaF and 1 mM Na3VO4. […]

## O=C(CC1NCCCC1O)Cn1cnc2cc(Br)c(Cl)cc2c1=O (racemic) [HF, 7-bromo-6-chloro-3-[3-(3-hydroxy-2-piperidinyl)-2-oxopropyl]-4(3H)-quinazolinone]
  TGFβ-induced Smad phosphorylation and other lymphocyte responses to TGFβ: inhibited neither
